Results taken from ChEMBL document CHEMBL1949628, “Discovery of aminopiperidine-based Smac mimetics as IAP antagonists” (Bioorg Med Chem Lett, 2012).

Assays:
[1] = molecular target: T1, Baculoviral IAP repeat-containing protein 2 (Homo sapiens, UniProt Q13490); assay: Antagonist activity at GST-tagged BIR3 domain of cIAP1 using AbuRPFK-5FAM after 20 mins by fluorescence polarization assay; assay type: functional
[2] = molecular target: T1, Baculoviral IAP repeat-containing protein 2; assay: Antagonist activity at cIAP1 in human MDA-MB-231 cells assessed as cIAP1 degradation after 1 hr by ELISA; assay type: functional, cell-based
[3] = molecular target: T2, E3 ubiquitin-protein ligase XIAP (Homo sapiens, UniProt P98170); assay: Antagonist activity at GST-tagged BIR3 domain of XIAP using AbuRPFK-5FAM after 20 mins by fluorescence polarization assay; assay type: functional
MDA-MB-231 [4] = assay: Antiproliferative activity against human MDA-MB-231 cells after 48 hrs by alamar blue assay; assay type: functional; settings: MDA-MB-231, 48 h
MDA-MB-231 [5] = assay: Antiproliferative activity against human MDA-MB-231 cells assessed as cell growth at 0.0465 uM after 48 hrs by alamar blue assay relative to control; assay type: functional; settings: MDA-MB-231, 48 h, read-out: Activity
MDA-MB-231 [6] = assay: Antiproliferative activity against human MDA-MB-231 cells assessed as cell growth at 0.0155 uM after 48 hrs by alamar blue assay relative to control; assay type: functional; settings: MDA-MB-231, 48 h, read-out: Activity
MDA-MB-231 [7] = assay: Antiproliferative activity against human MDA-MB-231 cells assessed as cell growth at 0.13951 uM after 48 hrs by alamar blue assay relative to control; assay type: functional; settings: MDA-MB-231, 48 h, read-out: Activity
[8] = Lipophilicity, log D of the compound; assay type: physicochemical; settings: octanol/water
[9] = molecular target: T2, E3 ubiquitin-protein ligase XIAP; assay: Binding affinity to GST-tagged BIR3 domain of XIAP by isothermal titration calorimetry
MDA-MB-231 [10] = assay: Antiproliferative activity against human MDA-MB-231 cells assessed as cell growth at 0.41852 uM after 48 hrs by alamar blue assay relative to control; assay type: functional; settings: MDA-MB-231, 48 h, read-out: Activity
MDA-MB-231 [11] = assay: Antiproliferative activity against human MDA-MB-231 cells assessed as cell growth at 0.00172 uM after 48 hrs by alamar blue assay relative to control; assay type: functional; settings: MDA-MB-231, 48 h, read-out: Activity
MDA-MB-231 [12] = assay: Antiproliferative activity against human MDA-MB-231 cells assessed as cell growth at 1.25556 uM after 48 hrs by alamar blue assay relative to control; assay type: functional; settings: MDA-MB-231, 48 h, read-out: Activity
MDA-MB-231 [13] = assay: Antiproliferative activity against human MDA-MB-231 cells assessed as cell growth at 11.3 uM after 48 hrs by alamar blue assay relative to control; assay type: functional; settings: MDA-MB-231, 48 h, read-out: Activity
MDA-MB-231 [14] = assay: Antiproliferative activity against human MDA-MB-231 cells assessed as cell growth at 3.76667 uM after 48 hrs by alamar blue assay relative to control; assay type: functional; settings: MDA-MB-231, 48 h, read-out: Activity
MDA-MB-231 [15] = assay: Antiproliferative activity against human MDA-MB-231 cells assessed as cell growth at 0.00517 uM after 48 hrs by alamar blue assay relative to control; assay type: functional; settings: MDA-MB-231, 48 h, read-out: Activity

Row | IC50 [1] | EC50 [2] | Structure (SMILES) | other results
1 | 3360 nM |  | CN[C@@H](C)C(=O)N[C@H](C(=O)N[C@H]1CCCN(C(=O)c2ccccc2)C1)C1CCCCC1 | 
2 | 68 nM | 279 nM | CN[C@@H](C)C(=O)N[C@H](C(=O)N[C@H]1CCCN(CCc2cccc(F)c2)C1)C1CCCCC1 | 
3 | 40 nM | 113 nM | CN[C@@H](C)C(=O)N[C@H](C(=O)N[C@H]1CCCN(CCc2ccccc2)C1)C1CCCCC1 | IC50 [3]: > 8000 nM; GI50 (MDA-MB-231 [4]): 1010 nM
4 | 1990 nM |  | CN[C@@H](C)C(=O)N[C@H](C(=O)N[C@H]1CCCN([C@@H]2CCCc3ccccc32)C1)C1CCCCC1 | 
5 | 500 nM |  | CN[C@@H](C)C(=O)N[C@H](C(=O)N[C@H]1CCN(CCc2ccccc2)C1)C1CCCCC1 | 
6 | 5020 nM |  | CN[C@@H](C)C(=O)N[C@H](C(=O)N[C@H]1CCN(C(=O)c2ccccc2)C1)C1CCCCC1 | 
7 | 80 nM |  | CN[C@@H](C)C(=O)N[C@H](C(=O)N[C@H]1CCCCN(CCc2ccccc2)C1)C1CCCCC1 | 
8 | 780 nM |  | CN[C@@H](C)C(=O)N[C@H](C(=O)N[C@H]1CCN(C(=O)Cc2ccccc2)C1)C1CCCCC1 | 
9 | 33 nM | 104 nM | CN[C@@H](C)C(=O)N[C@H](C(=O)N[C@H]1CCCN(CCc2ccccc2F)C1)C1CCCCC1 | 
10 | 18 nM | 58 nM | CN[C@@H](C)C(=O)N[C@H](C(=O)N[C@H]1CCCN(CCc2ccc(F)cc2)C1)C1CCCCC1 | 
11 | 44 nM |  | CN[C@@H](C)C(=O)N[C@H](C(=O)N(C)[C@H]1CCCN(CCc2ccccc2)C1)C1CCCCC1 | 
12 | 450 nM |  | CN[C@@H](C)C(=O)N[C@H](C(=O)N[C@H]1CCCN(C(=O)OCc2ccccc2)C1)C1CCCCC1 | 
13 | 4 nM | 5 nM | CN[C@@H](C)C(=O)N[C@H](C(=O)N[C@H]1C[C@@H]2CC[C@H]1N(CCc1ccccc1)C2)C1CCCCC1 | IC50 [3]: 365 nM; growth at 0.0465 µM (MDA-MB-231 [5]): 73.5%; growth at 0.0155 µM (MDA-MB-231 [6]): 84%; growth at 0.13951 µM (MDA-MB-231 [7]): 37.5%; logD [8]: 1.64; Kd [9]: 900 nM; growth at 0.41852 µM (MDA-MB-231 [10]): 3.61%; growth at 0.00172 µM (MDA-MB-231 [11]): 97%; GI50 (MDA-MB-231 [4]): 100 nM; growth at 1.25556 µM (MDA-MB-231 [12]): -12.2%; growth at 11.3 µM (MDA-MB-231 [13]): 8.61%; growth at 3.76667 µM (MDA-MB-231 [14]): -11%; growth at 0.00517 µM (MDA-MB-231 [15]): 82.2%
14 | 62 nM |  | CN[C@@H](C)C(=O)N[C@H](C(=O)N[C@H]1CCCN(CC(c2ccccc2)c2ccccc2)C1)C1CCCCC1 | 
15 | 3380 nM |  | CN[C@@H](C)C(=O)N[C@H](C(=O)N[C@H]1CCN(Cc2ccccc2)C1)C1CCCCC1 | 
16 | 740 nM |  | CN[C@@H](C)C(=O)N[C@H](C(=O)N[C@H]1CCN(C(=O)OCc2ccccc2)C1)C1CCCCC1 | 
17 | 130 nM |  | CN[C@@H](C)C(=O)N[C@H](C(=O)N[C@H]1CCCN(C(=O)Cc2ccccc2)C1)C1CCCCC1 | 
18 | 1690 nM |  | CN[C@@H](C)C(=O)N[C@H](C(=O)N[C@H]1CCCN(Cc2ccccc2)C1)C1CCCCC1 | 
19 | 270 nM |  | CN[C@@H](C)C(=O)N[C@H](C(=O)N[C@H]1CCCCN(Cc2ccccc2)C1)C1CCCCC1 | 
20 | 790 nM |  | CN[C@@H](C)C(=O)N[C@H](C(=O)N[C@H]1CCCN(CCCc2ccccc2)C1)C1CCCCC1 | 
21 | 740 nM |  | CN[C@@H](C)C(=O)N[C@H](C(=O)N[C@H]1CCN(CCCc2ccccc2)C1)C1CCCCC1 | 

Continued, molecule first:

Row | Structure (SMILES) | IC50 [1] | EC50 [2] | other results
22 | CN[C@@H](C)C(=O)N[C@H](C(=O)N[C@H]1CCCN(CCc2ccc([N+](=O)[O-])cc2)C1)C(C)(C)C | 32 nM | 60 nM | 
23 | CN[C@@H](C)C(=O)N[C@H](C(=O)N[C@H]1CCCN(CCc2ccccc2OC)C1)C(C)(C)C | 50 nM | 156 nM | 
24 | CN[C@@H](C)C(=O)N[C@H](C(=O)N[C@H]1CCCN(CCc2ccccn2)C1)C(C)(C)C | 301 nM | > 370 nM | 
25 | CN[C@@H](C)C(=O)N[C@H](C(=O)N[C@H]1CCCN(CCc2ccc(F)cc2)C1)C(C)(C)C | 20 nM | 60 nM | 
26 | CN[C@@H](C)C(=O)N[C@H](C(=O)N[C@H]1CCCN(CCc2c[nH]c3ccccc23)C1)C(C)(C)C | 115 nM | 185 nM | 
27 | CN[C@@H](C)C(=O)N[C@H](C(=O)N[C@H]1CCCN(CCc2cccc(OC)c2)C1)C(C)(C)C | 52 nM | 164 nM | 
28 | CN[C@@H](C)C(=O)N[C@H](C(=O)N[C@H]1CCCN(S(=O)(=O)Cc2ccccc2)C1)C(C)(C)C | 3890 nM |  | 
29 | CN[C@@H](C)C(=O)N[C@H](C(=O)N[C@H]1CCCN(CCc2ccccc2)C1)C(C)(C)C | 26 nM |  | 
30 | CN[C@@H](C)C(=O)N[C@H](C(=O)N[C@H]1CCCN(CCc2ccc(Cl)cc2)C1)C(C)(C)C | 24 nM | 117 nM | 
31 | CN[C@@H](C)C(=O)N[C@H](C(=O)N[C@H]1CCCN(CCc2ccc(C(F)(F)F)cc2)C1)C(C)(C)C | 49 nM | 300 nM | 
32 | CN[C@@H](C)C(=O)N[C@H](C(=O)N[C@H]1CCCN(CCc2ccc(Br)cc2)C1)C(C)(C)C | 24 nM | 71 nM | 
33 | CN[C@@H](C)C(=O)N[C@H](C(=O)N[C@H]1CCCN(CCc2ccc(OC)cc2)C1)C(C)(C)C | 90 nM | 158 nM | 
34 | CN[C@@H](C)C(=O)N[C@H](C(=O)N[C@H]1CCCN(CCc2ccc(O)cc2)C1)C(C)(C)C | 42 nM | 68 nM | 
35 | CN[C@@H](C)C(=O)N[C@H](C(=O)N1CC[C@H]2CCN(CCc3ccccc3)C[C@H]21)C1CCCCC1 |  |  | logD [8]: 2.61
36 | CN[C@@H](C)C(=O)N[C@H](C(=O)N[C@H]1CCCN(CCc2ccc(C)cc2)C1)C(C)(C)C | 30 nM | 60 nM | 
37 | CN[C@@H](C)C(=O)N[C@H](C(=O)N[C@H]1CCCN(CCc2ccncc2)C1)C(C)(C)C | 593 nM | > 370 nM | 
38 | CN[C@@H](C)C(=O)N[C@H](C(=O)N[C@H]1CCCN(S(=O)(=O)c2ccccc2)C1)C(C)(C)C | 5750 nM |  | 
